Experimental data from PubChem BioAssay (NCI).
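1) Cells in 96-well plates. 2) Compound, 48 h, 5 concentrations. 3) Linear interpolation between surrounding doses. 4) Unreached endpoint = highest concentration. TGI marks complete inhibition of growth.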

Legend:
Experiment in all cases: NCI tumour cell line growth inhibition, 48 h
[1] = system: UO-31 renal
[2] = system: HS 578T breast
[3] = system: SNB-19 CNS
[4] = system: K-562 leukemia
[5] = system: 786-0 renal
[6] = system: BT-549 breast
[7] = system: ACHN renal
[8] = system: MCF7 breast
[9] = system: UACC-257 melanoma
[10] = system: TK-10 renal
[11] = system: IGROV1 ovarian
[12] = system: RXF 393 renal
[13] = system: T-47D breast
[14] = system: SK-MEL-2 melanoma
[15] = system: OVCAR-3 ovarian
[16] = system: U251 CNS
[17] = system: MDA-N
[18] = system: SK-OV-3 ovarian
[19] = system: NCI-H522 lung
[20] = system: SK-MEL-5 melanoma
[21] = system: KM12 colon
[22] = system: HL-60(TB) leukemia
[23] = system: HOP-62 NSCLC
[24] = system: HCT-116 colon
[25] = system: DU-145 prostate
[26] = system: OVCAR-8 ovarian
[27] = system: HCC-2998 colon
[28] = system: HT29 colon
[29] = system: A549 NSCLC
[30] = system: UACC-62 melanoma
[31] = system: RPMI-8226 leukemia
[32] = system: MOLT-4 leukemia
[33] = system: SF-268 CNS
[34] = system: NCI-H23 lung
[35] = system: SF-295 CNS
[36] = system: NCI-H460 lung
[37] = system: MDA-MB-231 breast
[38] = system: COLO 205 colon
[39] = system: LOX IMVI melanoma
[40] = system: NCI/ADR-RES ovarian
[41] = system: EKVX NSCLC
[42] = system: HOP-92 NSCLC
[43] = system: SN12C renal
[44] = system: NCI-H226 lung
[45] = system: A498 renal
[46] = system: OVCAR-5 ovarian
[47] = system: SNB-75 CNS
[48] = system: HCT-15 colon
[49] = system: MDA-MB-435
[50] = system: CAKI-1 renal
[51] = system: SW-620 colon
[52] = system: SK-MEL-28 melanoma
[53] = system: CCRF-CEM leukemia
[54] = system: OVCAR-4 ovarian
[55] = system: PC-3 prostate
[56] = system: M14 melanoma
[57] = system: MALME-3M melanoma
[58] = system: SF-539 CNS

In the case of `COc1ccc(N2C(=O)C3c4[nH]c5ccc(OC)cc5c4C4CCC(C(C)C)CC4C3C2=O)cc1` (stereo not given), the TGI [1] is reported as greater than 100 µM, the TGI [2] is reported as greater than 84.4 µM and the TGI [3] is reported as 99.4 µM. The TGI [4] was greater than 31.6 µM, the TGI [5] was greater than 55.2 µM and the TGI [6] was greater than 100 µM. For the same molecule, the TGI [7] was greater than 100 µM, the TGI [8] was greater than 100 µM and the TGI [9] was greater than 100 µM. For the same molecule, the TGI [10] was greater than 100 µM, the TGI [11] was greater than 100 µM and the TGI [12] was greater than 100 µM. It also gave a TGI [13] greater than 100 µM, a TGI [14] greater than 100 µM and a TGI [15] greater than 100 µM. The TGI [16] was greater than 100 µM, the TGI [17] was greater than 100 µM and the TGI [18] was greater than 100 µM. The TGI [19] was greater than 100 µM, the TGI [20] was greater than 100 µM and the TGI [21] was greater than 100 µM. For the same molecule, the TGI [22] was greater than 100 µM, the TGI [23] was 54.8 µM and the TGI [24] was greater than 100 µM. The TGI [25] was greater than 100 µM, the TGI [26] was greater than 100 µM and the TGI [27] was greater than 100 µM. For the same molecule, the TGI [28] was greater than 100 µM, the TGI [29] was greater than 100 µM and the TGI [30] was greater than 31.6 µM. For the same molecule, the TGI [31] was greater than 100 µM, the TGI [32] was greater than 93.5 µM and the TGI [33] was greater than 74.5 µM. For the same molecule, the TGI [34] was greater than 100 µM, the TGI [35] was greater than 100 µM and the TGI [36] was greater than 100 µM. It also gave a TGI [37] greater than 100 µM, a TGI [38] greater than 100 µM and a TGI [39] greater than 100 µM. For the same molecule, the TGI [40] was greater than 100 µM, the TGI [41] was greater than 100 µM and the TGI [42] was greater than 100 µM. It also gave a TGI [43] greater than 100 µM, a TGI [44] greater than 100 µM and a TGI [45] greater than 92.5 µM. The TGI [46] was greater than 100 µM, the TGI [47] was greater than 65.5 µM and the TGI [48] was greater than 100 µM. It also gave a TGI [49] greater than 100 µM, a TGI [50] greater than 100 µM and a TGI [51] greater than 100 µM. It also gave a TGI [52] greater than 100 µM, a TGI [53] greater than 30.3 µM and a TGI [54] greater than 100 µM. The TGI [55] was greater than 100 µM and the TGI [56] was greater than 100 µM.
Molecule `N#CCCN(CCNc1ccccc1)C(=O)Nc1ccc(NC(=O)N(CCC#N)CCNc2ccccc2)cc1` has a TGI [1] greater than 100 µM, a TGI [2] greater than 64.2 µM and a TGI [3] greater than 100 µM. It also gave a TGI [4] greater than 100 µM, a TGI [5] greater than 100 µM and a TGI [6] greater than 80.4 µM. It also gave a TGI [7] greater than 100 µM, a TGI [8] greater than 100 µM and a TGI [9] greater than 100 µM. The TGI [10] was 98 µM, the TGI [12] was greater than 83 µM and the TGI [13] was greater than 100 µM. It also gave a TGI [14] greater than 100 µM, a TGI [15] greater than 100 µM and a TGI [16] greater than 100 µM. The TGI [57] was greater than 100 µM, the TGI [17] was greater than 100 µM and the TGI [18] was greater than 100 µM. For the same molecule, the TGI [19] was greater than 66.3 µM, the TGI [20] was greater than 100 µM and the TGI [21] was greater than 100 µM. It also gave a TGI [23] greater than 84.7 µM, a TGI [24] greater than 100 µM and a TGI [25] greater than 100 µM. For the same molecule, the TGI [26] was greater than 100 µM, the TGI [27] was greater than 100 µM and the TGI [28] was greater than 100 µM. The TGI [29] was greater than 100 µM, the TGI [30] was greater than 100 µM and the TGI [31] was greater than 100 µM. For the same molecule, the TGI [32] was greater than 100 µM, the TGI [33] was greater than 79.9 µM and the TGI [34] was greater than 100 µM. For the same molecule, the TGI [35] was greater than 100 µM, the TGI [36] was greater than 100 µM and the TGI [37] was greater than 100 µM. It also gave a TGI [38] greater than 100 µM, a TGI [39] greater than 100 µM and a TGI [40] greater than 100 µM. The TGI [41] was greater than 100 µM, the TGI [42] was greater than 81.5 µM and the TGI [43] was greater than 100 µM. For the same molecule, the TGI [44] was greater than 100 µM, the TGI [45] was greater than 100 µM and the TGI [46] was greater than 100 µM. It also gave a TGI [58] greater than 100 µM, a TGI [47] of 72 µM and a TGI [48] greater than 100 µM. It also gave a TGI [49] greater than 100 µM, a TGI [50] greater than 100 µM and a TGI [51] greater than 100 µM. For the same molecule, the TGI [52] was greater than 100 µM, the TGI [54] was greater than 31.6 µM and the TGI [55] was greater than 100 µM. The TGI [56] was greater than 100 µM.
In the case of `Nc1ccc2nc3ccc(=O)cc-3n(-c3ccccc3)c2c1`, the TGI [1] is reported as greater than 100 µM, the TGI [2] is reported as greater than 100 µM and the TGI [3] is reported as greater than 100 µM. The TGI [4] was greater than 100 µM, the TGI [5] was greater than 100 µM and the TGI [6] was greater than 100 µM. It also gave a TGI [7] greater than 100 µM, a TGI [8] greater than 100 µM and a TGI [11] greater than 100 µM. The TGI [12] was greater than 100 µM, the TGI [13] was greater than 100 µM and the TGI [14] was greater than 100 µM. It also gave a TGI [15] greater than 100 µM, a TGI [16] greater than 100 µM and a TGI [57] greater than 100 µM. The TGI [17] was greater than 100 µM, the TGI [18] was greater than 100 µM and the TGI [19] was greater than 100 µM. It also gave a TGI [20] greater than 100 µM, a TGI [21] greater than 100 µM and a TGI [22] greater than 100 µM. For the same molecule, the TGI [23] was greater than 100 µM, the TGI [24] was greater than 100 µM and the TGI [25] was greater than 100 µM. The TGI [26] was greater than 100 µM, the TGI [27] was greater than 100 µM and the TGI [28] was greater than 100 µM. It also gave a TGI [29] greater than 100 µM, a TGI [30] greater than 100 µM and a TGI [31] greater than 100 µM. It also gave a TGI [32] greater than 100 µM, a TGI [33] greater than 100 µM and a TGI [34] greater than 100 µM. For the same molecule, the TGI [35] was greater than 100 µM, the TGI [36] was greater than 100 µM and the TGI [37] was greater than 100 µM. For the same molecule, the TGI [38] was greater than 100 µM, the TGI [40] was greater than 100 µM and the TGI [41] was greater than 100 µM. It also gave a TGI [42] greater than 100 µM, a TGI [43] greater than 100 µM and a TGI [44] greater than 100 µM. The TGI [45] was 85.7 µM, the TGI [46] was greater than 100 µM and the TGI [58] was greater than 100 µM. For the same molecule, the TGI [47] was 92.4 µM, the TGI [48] was greater than 100 µM and the TGI [49] was greater than 100 µM. For the same molecule, the TGI [51] was greater than 100 µM, the TGI [52] was greater than 100 µM and the TGI [53] was greater than 100 µM. The TGI [54] was greater than 100 µM, the TGI [55] was greater than 100 µM and the TGI [56] was greater than 100 µM.
